Data set [1] has as its system 3T3-L1 cells. Nature of the data set: Adipocyte differentiation, Oil Red O staining. Particulars: preadipocytes 7 days in differentiating media (DM) + compound. Type of data set: cell-based, mouse. As for the experimental part:
Two-day post-confluent 3T3-L1 preadipocyte cells were allowed to differentiate for 7 days in the presence of nothing, DM only, DM+ a test compound (COH-SR1, COH-SR2, COH-SR3, COH-SR4, COH-SR7, LR23 or LR59), or DM+ a positive control (TSA, C75, or Apicidin).
(§1) 3T3-L1 preadipocytes cells were treated with differentiating media (DM) with COH-SR4 (1 μM, 3 μM, or 5 μM) or without for 7 days. […] As used in FIG. 9C, U=undifferentiated, D=differentiated with cocktail media.

For data set [2], the system named is 3T3-L1 cells. Put plainly: Intracellular triglyceride contents, AdipoRed Assay. Particulars: 7 days in DM + compound. Type of data set: cell-based, mouse. As for the experimental part: Intracellular triglyceride contents were measured using AdipoRed Assay™ and the results were shown in relative fluorescence units (RFU) in FIG. 5.
as §1

Data set [3] relates to undifferentiated 3T3-L1 cells. Put plainly: Preadipocyte viability, MTT assay. Type of data set: cell-based, mouse. Particulars: 3 days, 2.5-25 μM. As for the experimental part:
Undifferentiated 3T3-LI cells were treated with COH-SR2, COH-SR3, COH-SR4, COH-SR7, LR23 or LR59 for 3 days at a concentration of 2.5 μM, 5 μM, 10 μM, 15 μM, 20 μM, or 25 μM. The cell viability for each treatment was determined by MTT assay (FIG. 7).
In general terms: Tetrazolium assays rely on reduction of a dye to a coloured formazan, in cell work by metabolically active cells.

For data set [4], the system named is NCI-60 human tumor cell lines. Nature of the data set: NCI-60 DTP Human Tumor Cell Line Drug Screening. Type of data set: cell-based. The conditions noted are these: leukemia, NSCLC, colon, CNS, melanoma, ovarian, renal, prostate, breast lines. An excerpt: Moreover, preliminary data from the NCI-60 DTP Human Tumor Cell Line Drug Screening (http://dtp.nci.nih.gov/branches/btb/ivclsp.html) further confirmed the observations on these COH-SR compounds. […] A value of 100 meant no growth inhibition. A value of 20 meant 80% growth inhibition. A value of 0 meant no net growth over the course of the experiment. A value of −40 meant 40% lethality. A value of −100 meant all cells were dead.

Data set [5] concerns AMPK. Put plainly: AMPK activation in Hela cells, Western blot. Type of data set: cell-based. The conditions noted are these: 1 hour, 1, 3 or 5 μM. As for the experimental part:
Activation of AMPK was associated with the phosphorylation of the α-subunit on Thr-172 of as assessed using phospho-specific antibodies (FIGS. 10A-B). AMPK activation also leads to the increased phosphorylation of the target protein acetyl-CoA carboxylase (ACC) (FIG. 10B).
Cells of each cell lines (Hela, HL-60, and 3T3-L1) were treated for 1 hour with a test compound (COH-SR4, COH-SR9, COH-SR16, or COH-SR18) at a concentration of 1 μM, 3 μM, or 5 μM, or AICAR (5-aminoimidazole-4-carboxamideriboside, an AMPK agonist used as positive control) at a concentration of 500 μM, or none of the above (the untreated cells as negative control). Total cell lysates from the untreated cells and the cells treated with a test compound or AICAR were analyzed by Western blot assay using specific antibodies against phospho-AMPK, phospho-ACC, total AMPK and total ACC.

Data set [6] concerns HMLE breast cancer cell line. Nature of the data set: HMLE viability, DIMSCAN assay. Type of data set: cell-based, human. The conditions noted are these: 3 days, 2-50 μM. As for the experimental part: The effects of COH-SR compounds on breast cancer cells were investigated. Cells from 4T1 or HMLE breast cancer cell line were seeded in 96-well plates (about 2000 cells/well), allowed to proliferate for one day, treated with a COH-SR compound, doxorubicin, paclitaxel, cisplatin, or nothing (control) at a specific dose (3 wells for each treatment) and assayed for cell viability 3 days after using DIMSCAN assay. COH-SR3, COH-SR4, COH-SR9, doxorubicin, paclitaxel, and cisplatin were used at a dosage of 40 nM, 200 nM, 1 μM, 2 μM, 10 μM, or 50 μM for 4T1 breast cancer cell lines. COH-SR14 was used at a dosage of 40 nM, 200 nM, 1 μM, 2 μM, or 10 μM for 4T1 breast cancer cell lines. COH-SR3, COH-SR4, COH-SR9, doxorubicin, paclitaxel, and cisplatin were used at a dosage of 2 μM, 10 μM, or 50 μM for HMLE breast cancer cell lines. COH-SR14 was used at a dosage of 2 μM, or 10 μM for HMLE breast cancer cell lines.

Data set [7] has as its system HL-60 cells. Put plainly: HL-60 cell viability, MTT assay.
Procedure: Three independent experiments were carried out with 3 duplications each, and data are shown as mean±SE.
For data set [8], the system named is fully differentiated adipocytes. Put plainly: Dedifferentiation of fully differentiated adipocytes, Oil Red O staining. Particulars: differentiated 7 days, treated additional 3 days. Type of data set: cell-based. As for the experimental part:
Fully differentiated adipocyte cells were differentiated for 7 days and were treated for additional 3 days with DM+ a test compound (COH-SR3, COH-SR7, or LR59), DM+ a positive control (Apicidin, TSA or C75), DM, or nothing (control).

In data set [9] the test system is HL-60 cells. Nature of the data set: Differentiation of HL-60 cells (Giemsa-Wright, NBT, CD11b/CD14). Type of data set: cell-based, human. The conditions noted are these: 48 hours, 2-10 μM. As for the experimental part: HL-60 cells were incubated with a test compound at various concentrations (2˜10 μM), DMSO, or without any test compound for 48 hours, and then examined for morphologic changes by Giemsa-Wright stain. The results were observed microscopically and shown in FIG. 13 at a magnification of ×400. […] Such results were similar to cells treated with DMSO or all-trans retinoic acid (ATRA), wherein DMSO or ATRA terminally differentiated HL-60 cells into myeloid cells (FIG. 13).
HL-60 cells (2.5×10^5) were treated with or without a test compound for 48 hours and then stained with NBT, wherein positively-stained cells appeared as purple black (FIG. 14A). NBT positive cells were counted and the overall percentage was calculated based on 200 total cells counted for each treatment. Three˜four independent experiments were carried out, and data are shown as mean±SE (FIG. 14B). This measurement of “oxidative burst” by the NBT assay is a well-known and extensively tested functional marker of HL-60 cell differentiation.
HL-60 cells (2.5×10^5) were incubated with a test compound (COH-SR4 or COH-SR9) at a concentration of 0.5 μM, 1 μM, 2 μM, or 3 μM, or without any COH-SR compound for 48 hours and then assessed for the surface expression of CD11b (FIG. 14C) and CD14 (FIG. 14D) by flow cytometry, respectively. Three-four independent experiments were carried out, and data are shown as mean±SE (FIGS. 14C and 14D).

Data set [10] concerns U251. Put plainly: Glioma ATP viability assay, U251. Type of data set: cell-based. Particulars: Table 2. As for the experimental part: Cells of each cell line (U251, U87, PBT-017, PBT018, PBT003 and PBT028) were treated with various concentrations (0˜100 μM) of COH-SR4 for 72 hours. Cell viabilities were determined by ATP viability assays. Data were represented as a ratio to vehicle (DMSO) control, and plotted as mean±SEM (n=12) obtained from 2˜3 experiments (FIG. 34A).
Cells of each cell line (U87, U251, PBT003 and PVT-017) were treated with various concentrations (0˜100 μM) of COH-SR4 for 72 hours. Cell viabilities were determined by ATP viability assays. Data were represented as a ratio to vehicle (DMSO) control, and plotted as mean±SEM (n=12) obtained from 2-3 experiments (FIG. 34B).
Cells of each cell line were treated with various concentrations (0˜100 μM) of COH-SR4 or various concentrations (0˜1000 μM) of TMZ for 72 hours. Cell viabilities were determined by ATP viability assays. Data were represented as a ratio to untreated cells as control, and plotted as mean±SEM (n=12) obtained from 2˜3 experiments (FIGS. 43A-B).

The IC50 is the point on the concentration scale where inhibition reaches its midpoint. A high value points to weaker potency in that assay.

As for `COc1cc(/C=C/C(=O)/C=C(O)/C=C/c2ccc(OC(C)=O)c(OC)c2)ccc1O` [COH-SR2, (1E,4Z,6E)-7-(4″-acetoxy-3″-methoxyphenyl)-5-hydroxy-1-(4′-hydroxy-3′-methoxyphenyl)hepta-1,4,6-trien-3-one], the “differentiation and accumulation of lipid droplets (Oil Red O staining)” value (shortened to “differentiation and accumulation”) in [1] was “dose-dependently inhibited differentiation and accumulation of lipid droplets”. The “intracellular triglyceride contents (AdipoRed Assay)” value (“intracellular triglyceride contents” below) in data set [2] was “dose-dependently reduced”. In data set [3], the “growth of undifferentiated preadipocytes (MTT)” value was “inhibited growth of undifferentiated 3T3-L1 cells”. Further, in data set [4], the “activity in NCI-60 screening” value is “active against”.
Consider `O=C(Nc1cc(Cl)cc(Cl)c1)Nc1cc(Cl)nc(Cl)c1` [COH-SR16, 1-(2,6-dichloropyridin-4-yl)-3-(3,5-dichlorophenyl) urea], for which, in [5], the AMPK activation entry was “Dose-dependent AMPK activation”. Further, the “activity in NCI-60 screening” value in data set [4] is on record as “active against”.
For `Cc1c(Cl)cc(NC(=O)Nc2cc(Cl)cc(Cl)c2)cc1Cl` [COH-SR14, 1-(3,5-dichloro-4-methylphenyl)-3-(3,5-dichlorophenyl) urea], the “activity in NCI-60 screening” value in data set [4] is “active against”. Besides, the “cytotoxic effects compared with doxorubicin, paclitaxel and cisplatin (FIG. 30)” value in data set [6] was “more potent cytotoxic effects”. The IC50 in data set [7] (Homo sapiens, HL-60, 48 h) was below 5 µM.
Regarding `COc1cc(CCC(=O)CC(=O)CCc2ccc(OC(C)=O)c(OC)c2)ccc1OC(C)=O` [COH-SR1, 1,7-bis(4′-acetoxy-3′-methoxyphenyl)-3,5-heptadione], the “differentiation and accumulation” value in data set [1] is “dose-dependently inhibited differentiation and accumulation of lipid droplets”. For the same compound, in data set [2], the “intracellular triglyceride contents” value is on record as “dose-dependently reduced”.
With `CC(C)(Oc1ccc(NC(=O)Nc2cc(Cl)cc(Cl)c2)cc1)C(=O)Nc1ccc(C(=O)O)cc1` [COH-SR7, 4-[(3,5-dichlorophenylureido)phenoxyisobutyril]-4-aminobenzoic acid], in data set [1], the “differentiation and accumulation” value was “dose-dependently inhibited differentiation and accumulation of lipid droplets”. In [2], the “intracellular triglyceride contents” value is recorded as “dose-dependently reduced”. Also, the “dedifferentiation of fully differentiated adipocytes” value in data set [8] is given as “induced dedifferentiation of fully differentiated adipocytes”. Besides, the “growth of undifferentiated preadipocytes (MTT)” value in data set [3] is given as “inhibited growth of undifferentiated 3T3-L1 cells”. In addition, the “morphologic changes (Giemsa-Wright stain), myeloid differentiation” value in data set [9] is “exhibited cytoplasmic vacuolation, reduced nucleus-to-cytoplasmic ratio, and absence of prominent nucleoli”.
Consider “1-(4-chlorobenzyl)-3-dichlorophenyeureido)-4-phenoxyisobutyric acid [LR59]”, for which the “differentiation and accumulation” value in data set [1] is “dose-dependently inhibited differentiation and accumulation of lipid droplets”. The “intracellular triglyceride contents” value in data set [2] is “dose-dependently reduced”. For the same compound, in data set [8], the “dedifferentiation of fully differentiated adipocytes” value was “induced dedifferentiation of fully differentiated adipocytes”.
With `CCc1c2c(nc3ccc(O)cc13)-c1cc3c(c(=O)n1C2)COC(=O)[C@]3(O)CC` [SN-38, 7-ethyl-10-hydroxy-camptothecin], in [10] (72 hours), the half-maximal inhibitory concentration (IC50) came to 0.04 µM.
As for `O=C(Nc1cc(Cl)cc(Cl)c1)Nc1ccnc(Cl)n1` [COH-SR18, 1-(2-chloropyrimidin-4-yl)-3-(3,5-dichlorophenyl) urea], the AMPK activation entry in data set [5] is “Dose-dependent AMPK activation”.
Turning to `COc1ccc(-c2ccccc2)cc1NC(=O)Nc1cc(Cl)cc(Cl)c1` [COH-SR6, 1-(3,5-dichlorophenyl)-3-(4-methoxy-[1,1′-bisphenyl]-3-yl) urea], the “morphologic changes (Giemsa-Wright stain), myeloid differentiation” value in [9] was “exhibited cytoplasmic vacuolation, reduced nucleus-to-cytoplasmic ratio, and absence of prominent nucleoli”. For the same compound, in data set [4], the “activity in NCI-60 screening” value is on record as “active against”. The “cytotoxicity and cell proliferation” value in [7] (48 hours, 1-15 μM) was “exhibited cytotoxicity and prevented cell proliferation of HL-60 leukemia cells”.
The compound `CCc1c2c(nc3ccc(OC(=O)N4CCC(N5CCCCC5)CC4)cc13)-c1cc3c(c(=O)n1C2)COC(=O)[C@]3(O)CC` [CPT-11, irinotecan] registered an IC50 in data set [10] (Homo sapiens, U-251, 72 h) of 41.1 µM.
Consider `CC(C)(Oc1ccc(NC(=O)Nc2cc(Cl)cc(Cl)c2)cc1)C(=O)NC1(C(=O)O)CCCCC1` [LR23, 4-(3,5-dichlorophenylureido)phenoxyisobutyryl-1-amidocyclohexane-lcarboxylic acid], for which the “differentiation and accumulation” value in [1] is “dose-dependently inhibited differentiation and accumulation of lipid droplets”. The “intracellular triglyceride contents” value in [2] was “dose-dependently reduced”.
With `O=c1[nH]cc(F)c(=O)[nH]1` [5-FU], half-maximal inhibition in data set [10] (72 hours) (IC50) required 61 µM.

The values are drawn from patent US9808434B2, “Compound for treating cancer and diabetes” (CITY OF HOPE, priority 2011, dated 2017).
